In ChEMBL document CHEMBL5625204, “Synthesis and pharmacodynamic evaluation of naphthalene derivatives against influenza A virus in vitro and in vivo” (Eur J Med Chem, 2023):
The source made the active and inactive calls. The rule behind the calls is not given here.

Experiments:
[1] = Cytotoxicity against dog MDCK cells assessed as reduction in cell viability incubated for 72 hrs by MTT assay; type: toxicity, cell-based, Canis lupus familiaris
[2] = tested on: Influenza A virus; assay: Antiviral activity against Influenza A virus H1N1 (A/Weiss/43) infected in MDCK cells assessed as reduction of viral replication at 0.625 to 100 uM incubated for 72 hrs by TCID50 method; type: functional, organism-based; conditions: dose 0.625-100 µM
[3] = tested on: Influenza A virus; assay: Inhibition of Influenza A virus Neuraminidase at 100 to 300 uM pretreated with enzyme for 5 mins followed by fluorogenic substrate addition and measured for 1 hr by fluorescence based analysis; conditions: dose 100-300 µM, time 65.0 min
[4] = tested on: Influenza A virus; assay: Antiviral activity against Influenza A virus H1N1 (A/Weiss/43) infected in MDCK cells assessed as reduction of viral replication treated for 72 hrs after viral adsorption by TCID50 method; type: functional, organism-based
[5] = Selectivity index, ratio of CC50 for dog MDCK cells to EC50 for antiviral activity against Influenza A virus H1N1 (A/Weiss/43) infected in MDCK cells treated for 72 hrs after viral adsorption; type: toxicity, cell-based; conditions: read-out: Ratio CC50/EC50
[6] = tested on: Influenza A virus; assay: Antiviral activity against Influenza A virus H1N1 (A/Weiss/43)-infected in BALB/c mouse assessed as reduction in pulmonary inflammation at 50 mg/kg/day administered intranasally for 6 days starting from 3 hrs post-viral infection by Hematoxylin-Eosin staining based analysis; type: functional, organism-based; conditions: route nas, time 6.0 day
[7] = tested on: Influenza A virus; assay: Antiviral activity against Influenza A virus H1N1 (A/Weiss/43)-infected in BALB/c mouse assessed as reduction in lung index at 50 mg/kg/day administered intranasally for 6 days starting from 3 hrs post-viral infection; type: functional; conditions: 144 h, route nas, time 6 day
[8] = tested on: Influenza A virus; assay: Antiviral activity against Influenza A virus H1N1 (A/Virginia/ATCC2/2009) infected in MDCK cells assessed as reduction of viral replication incubated for 72 hrs by TCID50 method; type: functional, organism-based
[9] = Selectivity index, ratio of CC50 for dog MDCK cells to EC50 for antiviral activity against Influenza A virus H1N1 (A/Virginia/ATCC2/2009) infected in MDCK cells; type: toxicity, cell-based; conditions: read-out: Ratio CC50/EC50
[10] = tested on: Influenza A virus; assay: Antiviral activity against Influenza A virus H3N2 (A/California/2004) infected in MDCK cells assessed as reduction of viral replication incubated for 72 hrs by TCID50 method; type: functional, organism-based
[11] = Selectivity index, ratio of CC50 for dog MDCK cells to EC50 for antiviral activity against Influenza A virus H3N2 (A/California/2004) infected in MDCK cells; type: toxicity, cell-based; conditions: read-out: Ratio CC50/EC50
[12] = tested on: Influenza A virus; assay: Antiviral activity against Influenza A virus H1N1 (A/Weiss/43)-infected in dog MDCK cells assessed as reduction in oxidative stress by measuring proportion of normal cells at 50 uM treated at 2 hrs post-infection and measured after 36 hrs by DCFH-DA staining based flow cytometry (reference value: 69.4%); type: functional; design: scale not given: the % may be the effect or the level left
[13] = tested on: Influenza A virus; assay: Antiviral activity against Influenza A virus H1N1 (A/Weiss/43)-infected in dog MDCK cells assessed as reduction in oxidative stress by measuring proportion of cells with excessive ROS accumulation at 50 uM treated at 2 hrs post-infection and measured after 36 hrs by DCFH-DA staining based flow cytometry (reference value: 30.6%); type: functional; design: scale not given: the % may be the effect or the level left
[14] = tested on: Influenza A virus; assay: Antiviral activity against Influenza A virus H1N1 infected in dog MDCK cells assessed as decrease in apoptosis by measuring proportion of viable cells at 50 uM measured after 72 hrs by AnnexinV-FITC/PI staining based flow cytometry (reference value: 62.9%); type: functional
[15] = tested on: Influenza A virus; assay: Antiviral activity against Influenza A virus H1N1 infected in dog MDCK cells assessed as decrease in apoptosis by measuring proportion of early apoptotic cells at 50 uM measured after 72 hrs by AnnexinV-FITC/PI staining based flow cytometry (reference value: 24.3%); type: functional; design: scale not given: the % may be the effect or the level left
[16] = tested on: Influenza A virus; assay: Antiviral activity against Influenza A virus H1N1 infected in dog MDCK cells assessed as decrease in apoptosis by measuring proportion of late apoptotic cells at 50 uM measured after 72 hrs by AnnexinV-FITC/PI staining based flow cytometry (reference value: 10.3%); type: functional; design: scale not given: the % may be the effect or the level left
[17] = tested on: Influenza A virus; assay: Antiviral activity against Influenza A virus H1N1 infected in dog MDCK cells assessed as decrease in apoptosis by measuring proportion of necrotic cells at 50 uM measured after 72 hrs by AnnexinV-FITC/PI staining based flow cytometry (reference value: 2.47%); type: functional; design: scale not given: the % may be the effect or the level left

Structure (SMILES)	CC50 at 72 h [1] [µM]	Activity [2]	further results
C=CCN(c1cc2ccccc2c2ccccc12)S(=O)(=O)c1ccc(C)cc1	61.2	inactive	–
O=[N+]([O-])c1ccc(S(=O)(=O)N(Cc2ccccc2)C2=CCCc3ccccc32)cc1	> 800	inactive	–
Cc1ccc(S(=O)(=O)N(c2ccccc2)c2cccc3ccccc23)cc1	1160	inactive	–
CCOC(=O)C1=C[C@@H](OC(CC)CC)[C@H](NC(C)=O)[C@@H](N)C1 [OSELTAMIVIR]	> 800	–	inhibition [3]: Active; EC50 [4]: 1.7 µM; selectivity ratio at 72 h [5]: > 471; Activity [6]: Active; inhibition in vivo at 50 mg/kg/day [7]: 33.1%; EC50 [8]: 1.71 µM; selectivity ratio [9]: > 468; EC50 [10]: 5.9 µM; selectivity ratio [11]: > 136
Cc1ccc(S(=O)(=O)N(Cc2ccccc2)c2cc3ccccc3c3ccc(F)cc23)cc1	1040	inactive	–
Cc1ccc(S(=O)(=O)Nc2cc3ccccc3c3cc(C)ccc23)cc1	227	inactive	–
CS(=O)(=O)N(Cc1ccccc1)c1cc2ccccc2c2ccccc12	> 800	inactive	–
CS(=O)(=O)Nc1cc2ccccc2c2ccccc12	73.4	inactive	–
O=C1OCCN1c1cccc2ccccc12	> 800	inactive	–
Cc1ccc(S(=O)(=O)N(Cc2ccccc2)C2=CCCc3ccccc32)cc1	1170	inactive	–
CCCCN(C1=CCCc2ccccc21)S(=O)(=O)c1ccc(C)cc1	1170	–	EC50 [4]: 39.8 µM; selectivity ratio at 72 h [5]: 29.3
Cc1ccc(S(=O)(=O)N(C2=CCCc3ccccc32)c2ccccc2)cc1	1210	inactive	–
COc1ccc2c(c1)c(N(Cc1ccccc1)S(=O)(=O)c1ccc(C)cc1)cc1ccccc12	> 800	–	EC50 [4]: 21.8 µM; selectivity ratio at 72 h [5]: > 36.8
Cc1ccc(S(=O)(=O)N(Cc2ccccc2)c2cc3ccccc3c3ccccc23)cc1	> 800	inactive	–
Cc1ccc(S(=O)(=O)N(Cc2ccccc2)c2cc3ccc(C)cc3c3ccccc23)cc1	> 800	inactive	–
Cc1ccc(S(=O)(=O)N(Cc2ccccc2)c2cc3ccccc3c3ccc4ccsc4c23)cc1	1420	inactive	–
Cc1ccc(S(=O)(=O)N(Cc2ccccc2)c2cc3ccccc3c3ccc(C)cc23)cc1	> 800	–	EC50 [4]: 36.4 µM; selectivity ratio at 72 h [5]: > 22
CC(=O)c1ccc2c(c1)c(N(Cc1ccccc1)S(=O)(=O)c1ccc(C)cc1)cc1ccccc12	382	inactive	–
Cc1ccc(S(=O)(=O)N(Cc2ccccc2)c2cc3ccccc3c3ccc4ccccc4c23)cc1	> 800	inactive	–
O=S(=O)(c1ccc(Cl)cc1)N(Cc1ccccc1)c1cccc2ccccc12	> 800	inactive	–
CCCCN(c1cccc2ccccc12)S(=O)(=O)c1ccc(C)cc1	311	inactive	–
COC(=O)c1ccc2c(c1)c(N(Cc1ccccc1)S(=O)(=O)c1ccc(C)cc1)cc1ccccc12	3670	inactive	–
C=CCN(c1cccc2ccccc12)S(=O)(=O)c1ccc(C)cc1	620	inactive	–

Structure (SMILES)	CC50 at 72 h [1] [µM]	Activity [2]	further results
Cc1ccc(S(=O)(=O)N(C)c2cccc3ccccc23)cc1	> 800	inactive	–
O=C1OCCN1c1cc2ccccc2c2ccccc12	212	inactive	–
O=S(=O)(c1ccc(Cl)cc1)N(Cc1ccccc1)c1cc2ccccc2c2ccccc12	> 800	–	EC50 [4]: 30.1 µM; selectivity ratio at 72 h [5]: > 26.7
COc1ccc(S(=O)(=O)N(Cc2ccccc2)C2=CCCc3ccccc32)cc1	> 800	inactive	–
COc1ccc(S(=O)(=O)N(Cc2ccccc2)c2cc3ccccc3c3ccccc23)cc1	288	inactive	–
Cc1ccc(S(=O)(=O)N(Cc2ccccc2)c2cc3ccccc3c3cc(Cl)ccc23)cc1	2330	inactive	–
Cc1ccc(S(=O)(=O)N(c2ccccc2)c2cc3ccccc3c3ccccc23)cc1	> 800	inactive	–
COc1ccc(S(=O)(=O)N(Cc2ccccc2)c2cccc3ccccc23)cc1	> 800	inactive	–
O=C1OCCN1C1=CCCc2ccccc21	301	inactive	–
Cc1ccc(S(=O)(=O)N(Cc2ccccc2)c2cccc3ccccc23)cc1	1370	inactive	–
O=[N+]([O-])c1ccc(S(=O)(=O)N(Cc2ccccc2)c2cc3ccccc3c3ccccc23)cc1	726	inactive	–
Cc1ccc(S(=O)(=O)N(Cc2ccccc2)c2cc3ccccc3c3cc(C)ccc23)cc1	> 800	inactive	–
Cc1ccc(S(=O)(=O)Nc2cc3ccccc3c3ccc(-c4ccccc4)cc23)cc1	> 800	inactive	–
COc1ccc2c(c1)c(NS(=O)(=O)c1ccc(C)cc1)cc1ccccc12	> 800	–	EC50 [4]: 69.5 µM; selectivity ratio at 72 h [5]: > 11.5
O=S(=O)(c1ccc(Cl)cc1)N(Cc1ccccc1)C1=CCCc2ccccc21	> 800	inactive	–
Cc1ccc(S(=O)(=O)N(Cc2ccccc2)C2=CCOc3ccccc32)cc1	1270	–	EC50 [4]: 76.6 µM; selectivity ratio at 72 h [5]: 16.6
CS(=O)(=O)N(C1=CCCc2ccccc21)c1ccccc1	345	–	EC50 [4]: 50.8 µM; selectivity ratio at 72 h [5]: 6.78
Cc1ccc(S(=O)(=O)N(Cc2ccccc2)c2cc3ccccc3c3ccc(Cl)cc23)cc1	> 800	inactive	–
Cc1ccc(S(=O)(=O)N(Cc2ccccc2)c2cc3ccccc3c3ccc(-c4ccccc4)cc23)cc1	> 800	inactive	–
C=CCN(C1=CCCc2ccccc21)S(=O)(=O)c1ccc(C)cc1	127	inactive	–
Cc1ccc(S(=O)(=O)N(C)c2cc3ccccc3c3ccccc23)cc1	3120	inactive	–
NC(=O)c1ncn([C@@H]2O[C@H](CO)[C@@H](O)[C@H]2O)n1 [RIBAVIRIN]	707	–	EC50 [4]: 13 µM; selectivity ratio at 72 h [5]: 54.4; Activity [6]: Active; inhibition in vivo at 50 mg/kg/day [7]: 40%; EC50 [8]: 18.5 µM; selectivity ratio [9]: 38.3; EC50 [10]: 24.8 µM; selectivity ratio [11]: 28.5; Activity [12]: 92.5%; Activity [13]: 7.48%; Activity [14]: 93.2%; Activity [15]: 2.76%; Activity [16]: 2.43%; Activity [17]: 1.56%
